Data published in patent US20080292561A1, “Pyrazolo-Pyrimidine Derivatives as Anti-Inflammatory Agents” (Glaxo Group Limited, priority 2005, published 2008).

Test system: NFkB activity
Assay: Glucocorticoid mediated transrepression of NFkB activity (A549 cells, ELAM promoter alkaline phosphatase reporter, TNFα)
Format: cell-based
Conditions: Homo sapiens, A549, 16 h, Human A549 lung epithelial cells, 3 ng/ml human recombinant TNFα, read-out: pIC50, transrepression of NFkB activity (converted)
Description: Human A549 lung epithelial cells were engineered to contain a secreted placental alkaline phosphatase gene under the control of the distal region of the NFkB dependent ELAM promoter as previously described in Ray, K. P., Farrow, S., Daly, M., Talabot, F. and Searle, N. “Induction of the E-selectin promoter by interleukin 1 and tumour necrosis factor alpha, and inhibition by glucocorticoids” Biochemical Journal (1997) 328: 707-15.
Compounds were solvated and diluted in DMSO, and transferred directly into assay plates such that the final concentration of DMSO was 0.7%. Following the addition of cells (40K per well), plates were incubated for 1 hr prior to the addition of 3 ng/ml human recombinant TNFα. Following continued incubation for 16 hr, alkaline phosphatase activity was determined by measuring the change in optical density at 405 nm with time following the addition of 0.7 volumes of assay buffer (1 mg/ml p-nitrophenylphosphate dissolved in 1M diethanolamine, 0.28M NaCl, 0.5 mM MgCl2). Dose response curves were constructed from which EC50 values were estimated.

SMILES | IC50
Cc1nc(NCC(O)(CC(C)(C)c2cc(F)ccc2O)C(F)(F)F)c2cnn(-c3ccc(F)cc3F)c2n1 (single isomer, unassigned) [Example 25, 2-[3-({[1-(2,4-Difluorophenyl)-6-methyl-1H-pyrazolo[3,4-d]pyrimidin-4-yl]amino}methyl)-4,4,4-trifluoro-3-hydroxy-1,1-dimethylbutyl]-4-fluorophenol] | < 100 nM
Cc1nc(NCC(O)(CC(C)(C)c2cccc3c2OCC3)C(F)(F)F)c2cnn(-c3ccccc3)c2n1 (centres unmarked) [Example 1, 4-(2,3-Dihydro-1-benzofuran-7-yl)-1,1,1-trifluoro-4-methyl-2-{[(6-methyl-1-phenyl-1H-pyrazolo[3,4-d]pyrimidin-4-yl)amino]methyl}-2-pentanol] | < 100 nM
Cc1nc(NCC(O)(CC(C)(C)c2cccc3c2OCC3)C(F)(F)F)c2cnn(-c3ccccc3F)c2n1 (centres unmarked) [Example 2, 4-(2,3-Dihydro-1-benzofuran-7-yl)-1,1,1-trifluoro-2-({[1-(2-fluorophenyl)-6-methyl-1H-pyrazolo[3,4-d]pyrimidin-4-yl]amino}methyl)-4-methyl-2-pentanol] | < 100 nM
Cc1nc(NCC(O)(CC(C)(C)c2cccc3c2OCC3)C(F)(F)F)c2cnn(-c3ccc(F)cc3)c2n1 (centres unmarked) [Example 3, 4-(2,3-Dihydro-1-benzofuran-7-yl)-1,1,1-trifluoro-2-({[1-(4-fluorophenyl)-6-methyl-1H-pyrazolo[3,4-d]pyrimidin-4-yl]amino}methyl)-4-methyl-2-pentanol] | < 100 nM
Cc1nc(NCC(O)(CC(C)(C)c2cccc3c2OCC3)C(F)(F)F)c2cnn(-c3ccc(F)cc3F)c2n1 (centres unmarked) [Example 4, 2-({[1-(2,4-Difluorophenyl)-6-methyl-1H-pyrazolo[3,4-d]pyrimidin-4-yl]amino}methyl)-4-(2,3-dihydro-1-benzofuran-7-yl)-1,1,1-trifluoro-4-methyl-2-pentanol] | < 100 nM
CCc1nc(NCC(O)(CC(C)(C)c2cccc3c2OCC3)C(F)(F)F)c2cnn(-c3ccccc3)c2n1 (centres unmarked) [Example 5, 4-(2,3-Dihydro-1-benzofuran-7-yl)-2-{[(6-ethyl-1-phenyl-1H-pyrazolo[3,4-d]pyrimidin-4-yl)amino]methyl}-1,1,1-trifluoro-4-methyl-2-pentanol] | < 100 nM
CCc1nc(NCC(O)(CC(C)(C)c2cccc3c2OCC3)C(F)(F)F)c2cnn(-c3ccccc3F)c2n1 (centres unmarked) [Example 6, 4-(2,3-Dihydro-1-benzofuran-7-yl)-2-({[6-ethyl-1-(2-fluorophenyl)-1H-pyrazolo[3,4-d]pyrimidin-4-yl]amino}methyl)-1,1,1-trifluoro-4-methyl-2-pentanol] | < 100 nM
CCc1nc(NCC(O)(CC(C)(C)c2cccc3c2OCC3)C(F)(F)F)c2cnn(-c3ccc(F)cc3)c2n1 (centres unmarked) [Example 7, 4-(2,3-Dihydro-1-benzofuran-7-yl)-2-({[6-ethyl-1-(4-fluorophenyl)-1H-pyrazolo[3,4-d]pyrimidin-4-yl]amino}methyl)-1,1-trifluoro-4-methyl-2-pentanol] | < 100 nM
CCc1nc(NCC(O)(CC(C)(C)c2cccc3c2OCC3)C(F)(F)F)c2cnn(-c3ccc(F)cc3F)c2n1 (centres unmarked) [Example 8, 2-({[1-(2,4-Difluorophenyl)-6-ethyl-1H-pyrazolo[3,4-d]pyrimidin-4-yl]amino}methyl)-4-(2,3-dihydro-1-benzofuran-7-yl)-1,1,1-trifluoro-4-methyl-2-pentanol] | < 100 nM
CCc1nc(NCC(O)(CC(C)(C)c2cccc3c2OCC3)C(F)(F)F)c2cnn(-c3cccnc3)c2n1 (centres unmarked) [Example 9, 4-(2,3-Dihydro-1-benzofuran-7-yl)-2-({[6-ethyl-1-(3-pyridinyl)-1H-pyrazolo[3,4-d]pyrimidin-4-yl]amino}methyl)-1,1,1-trifluoro-4-methyl-2-pentanol] | < 100 nM
CCc1nc(NCC(O)(CC(C)(C)c2cccc3c2OCC3)C(F)(F)F)c2cnn(-c3ccncc3)c2n1 (centres unmarked) [Example 10, 4-(2,3-Dihydro-1-benzofuran-7-yl)-2-({[6-ethyl-1-(4-pyridinyl)-1H-pyrazolo[3,4-d]pyrimidin-4-yl]amino}methyl)-1,1,1-trifluoro-4-methyl-2-pentanol] | < 100 nM
CCc1nc(NCC(O)(CC(C)(C)c2cccc3c2OCC3)C(F)(F)F)c2cnn(-c3ccc(F)nc3)c2n1 (centres unmarked) [Example 11, 4-(2,3-Dihydro-1-benzofuran-7-yl)-2-({[6-ethyl-1-(6-fluoro-3-pyridinyl)-1H-pyrazolo[3,4-d]pyrimidin-4-yl]amino}methyl)-1,1,1-trifluoro-4-methyl-2-pentanol] | < 100 nM
CCc1nc(NCC(O)(CC(C)(C)c2cccc3c2OCC3)C(F)(F)F)c2cnn(-c3ccsc3)c2n1 (centres unmarked) [Example 12, 4-(2,3-Dihydro-1-benzofuran-7-yl)-2-({[6-ethyl-1-(3-thienyl)-1H-pyrazolo[3,4-d]pyrimidin-4-yl]amino}methyl)-1,1,1-trifluoro-4-methyl-2-pentanol] | < 100 nM
COc1ccc(F)cc1C(C)(C)CC(O)(CNc1nc(C)nc2c1cnn2-c1ccccc1)C(F)(F)F (centres unmarked) [Example 13, 1,1,1-Trifluoro-4-[5-fluoro-2-(methyloxy)phenyl]-4-methyl-2-{[(6-methyl-1-phenyl-1H-pyrazolo[3,4-d]pyrimidin-4-yl)amino]methyl}-2-pentanol] | < 100 nM
COc1ccc(F)cc1C(C)(C)CC(O)(CNc1nc(C)nc2c1cnn2-c1ccccc1F)C(F)(F)F (centres unmarked) [Example 14, 1,1,1-Trifluoro-4-[5-fluoro-2-(methyloxy)phenyl]-2-({[1-(2-fluorophenyl)-6-methyl-1H-pyrazolo[3,4-d]pyrimidin-4-yl]amino}methyl)-4-methyl-2-pentanol] | < 100 nM
COc1ccc(F)cc1C(C)(C)CC(O)(CNc1nc(C)nc2c1cnn2-c1ccc(F)cc1)C(F)(F)F (centres unmarked) [Example 15, 1,1,1-Trifluoro-4-[5-fluoro-2-(methyloxy)phenyl]-2-({[1-(4-fluorophenyl)-6-methyl-1H-pyrazolo[3,4-d]pyrimidin-4-yl]amino}methyl)-4-methyl-2-pentanol] | < 100 nM
COc1ccc(F)cc1C(C)(C)CC(O)(CNc1nc(C)nc2c1cnn2-c1ccc(F)cc1F)C(F)(F)F (centres unmarked) [Example 16, 2-({[1-(2,4-Difluorophenyl)-6-methyl-1H-pyrazolo[3,4-d]pyrimidin-4-yl]amino}methyl)-1,1,1-trifluoro-4-[5-fluoro-2-(methyloxy)phenyl]-4-methyl-2-pentanol] | < 100 nM
COc1ccc(F)cc1C(C)(C)CC(O)(CNc1nc(C)nc2c1cnn2-c1cccnc1)C(F)(F)F (centres unmarked) [Example 17, 1,1,1-Trifluoro-4-[5-fluoro-2-(methyloxy)phenyl]-4-methyl-2-({[6-methyl-1-(3-pyridinyl)-1H-pyrazolo[3,4-d]pyrimidin-4-yl]amino}methyl)-2-pentanol] | < 100 nM
COc1ccc(F)cc1C(C)(C)CC(O)(CNc1nc(C)nc2c1cnn2-c1ccncc1)C(F)(F)F (centres unmarked) [Example 18, 1,1,1-Trifluoro-4-[5-fluoro-2-(methyloxy)phenyl]-4-methyl-2-({[6-methyl-1-(4-pyridinyl)-1H-pyrazolo[3,4-d]pyrimidin-4-yl]amino}methyl)-2-pentanol] | < 100 nM
COc1ccc(F)cc1C(C)(C)CC(O)(CNc1nc(C)nc2c1cnn2-c1ccsc1)C(F)(F)F (centres unmarked) [Example 19, 1,1,1-Trifluoro-4-[5-fluoro-2-(methyloxy)phenyl]-4-methyl-2-({[6-methyl-1-(3-thienyl)-1H-pyrazolo[3,4-d]pyrimidin-4-yl]amino}methyl)-2-pentanol] | < 100 nM
